Data published in PubChem BioAssay (NCI).
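A five-concentration, 48-hour dose response in 96-well plates underlies each endpoint, interpolated linearly between surrounding concentrations. GI50: concentration for 50% inhibition of growth. TGI marks complete inhibition of growth.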

What was measured:
Assay in all cases: NCI-60 cell line screen, 48 h
IGROV1 ovarian = test system: IGROV1 ovarian
OVCAR-3 ovarian = test system: OVCAR-3 ovarian
UACC-257 melanoma = test system: UACC-257 melanoma
RPMI-8226 leukemia = test system: RPMI-8226 leukemia
CCRF-CEM leukemia = test system: CCRF-CEM leukemia
HOP-62 NSCLC = test system: HOP-62 NSCLC
SK-OV-3 ovarian = test system: SK-OV-3 ovarian
U251 CNS = test system: U251 CNS
SN12C renal = test system: SN12C renal
ACHN renal = test system: ACHN renal

Compound	GI50 (IGROV1 ovarian) [µM]	TGI (IGROV1 ovarian) [µM]	GI50 (OVCAR-3 ovarian) [µM]	TGI (OVCAR-3 ovarian) [µM]	GI50 (UACC-257 melanoma) [µM]	TGI (UACC-257 melanoma) [µM]	GI50 (RPMI-8226 leukemia) [µM]	TGI (RPMI-8226 leukemia) [µM]	GI50 (CCRF-CEM leukemia) [nM]	TGI (CCRF-CEM leukemia) [µM]	GI50 (HOP-62 NSCLC) [µM]	TGI (HOP-62 NSCLC) [µM]	GI50 (SK-OV-3 ovarian) [µM]	TGI (SK-OV-3 ovarian) [µM]	GI50 (U251 CNS) [µM]	TGI (U251 CNS) [µM]	GI50 (SN12C renal) [µM]	TGI (SN12C renal) [µM]	GI50 (ACHN renal) [µM]	TGI (ACHN renal) [µM]
OCc1c[nH]c2ccccc12	14.1	42.2	20.3	49.3	22.9	74	20.6	64.2	26900	> 100	14.4	36.7	26.3	98.9	21.9	62	18.9	39.7	24.4	86.4
CCOc1cc2c(Cl)ncnc2c(OCC)c1OCC	1.6	3.53	4	10.8	6.95	22	3.29	20.6	2600	6.85	15.5	30.9	16.5	30.5	7	19.6	12	26.2	14.1	27.1
C[C@@H]1OC(O)[C@@H](F)[C@H](O)[C@@H]1O (some centres undefined)	> 100	> 100	> 100	> 100	> 100	> 100	> 100	> 100	> 100000	> 100	> 100	> 100	> 100	> 100	> 100	> 100	> 100	> 100	> 100	> 100
Cc1cccc(C)c1NC(=O)C(=O)C1C(=O)NC(=O)NC1=O	–	> 100	–	> 100	–	> 100	–	> 100	–	> 100	–	> 100	–	> 100	–	> 100	–	> 100	–	> 100
COc1cc([N+](=O)[O-])cc2c3c(n(C)c12)[C@@]1(C)CCC2c4ccc(OCc5ccccc5)cc4CCC2C1C3 (some centres undefined)	> 100	> 100	> 100	> 100	85.6	> 100	81.8	> 100	> 100000	> 100	43.7	> 100	54.5	> 100	37.5	> 100	> 100	> 100	> 100	> 100
COC12C=C(C)C(CC1)CC2C(=O)O (centres undefined)	–	> 100	–	> 100	–	> 100	–	> 100	–	> 100	–	> 100	–	> 100	–	> 100	–	> 100	–	> 100
CC[C@@]1(O)C(=O)OCc2c1cc1n(c2=O)Cc2c-1nc1cc3c(cc1c2CCl)OCO3	0.139	5.75	0.333	3.07	< 0.0446	1.59	< 0.01	0.309	< 10	–	< 0.01	< 0.0479	< 0.01	1.07	< 0.01	1.9	< 0.01	0.367	< 0.01	0.0322
N#Cc1ccc(O)c(C2=NCC(c3cccc(Oc4ccccc4)c3)O2)c1 (centres undefined)	0.787	12.1	0.432	10.8	2.28	7.29	0.715	> 100	555	> 100	0.605	12.7	1.58	21.3	0.503	> 100	1.21	89.5	0.615	14.3
CCCn1cnc2c(SCc3ccccc3Cl)nc(N)nc21	13.3	> 100	20.5	79.6	27.8	93.8	6.28	28.2	5900	47.3	21.1	> 100	14.9	> 100	5.62	37.8	19.6	95.2	13.6	67.4
CS(=O)(=O)c1ccc([C@H]2O[C@@H](CO)C[C@]2(O)c2ccc(S(C)(=O)=O)cc2)cc1	> 100	> 100	> 100	> 100	> 100	> 100	> 100	> 100	> 100000	> 100	> 100	> 100	> 100	> 100	> 100	> 100	> 100	> 100	> 100	> 100
CSC(C1c2ccccc2N(c2ccc(C)cc2)C2=NC(=O)N(C)C(=O)C21Cl)S(=O)(=O)c1ccc(C)cc1 (centres undefined)	–	85.6	–	30.9	–	57.2	–	57	–	38	–	43.3	–	87.6	–	38.9	–	58.5	–	> 100
CCC[CH2][Sn]1([CH2]CCC)[O]Cc2nc(C)ccc2[O]1	14.9	28.8	5.05	17	5.6	20.2	1.99	6.87	1870	5.01	10.1	22.5	15.8	29.7	4.73	16.7	11.3	23.3	12	24.4
COc1cc(C2=C(c3ccccc3)COC2=O)cc(OC)c1OC	5.82	> 56.5	0.309	2.1	> 25	> 94.8	1.12	5.28	1380	> 100	2.07	> 100	4.56	> 100	5.86	> 100	5.96	> 100	> 43.5	> 100
O=C(/C(Br)=C/c1ccccc1)c1ccccc1	1.66	4.68	2.2	5.59	1.86	4.49	2.41	7.07	390	2.01	2.29	6.1	16	34.6	1.83	4.4	2.34	5.85	1.22	2.48
O=C1O[C@@H](c2ccc3c(c2)OCO3)C2C(=O)O[C@@H](c3ccc4c(c3)OCO4)C12 (some centres undefined)	–	> 100	–	> 100	–	> 100	–	> 100	–	> 100	–	> 100	–	> 100	–	> 100	–	> 100	–	> 100
CC(C)(CC(=O)Nc1ccccc1)C(=O)O	–	> 100	–	> 100	–	> 100	–	> 100	–	> 100	–	> 100	–	> 100	–	> 100	–	> 100	–	> 100
